Reference: patent US20210254056A1, “IDENTIFICATION AND TARGETED MODULATION OF GENE SIGNALING NETWORKS” (CAMP4 THERAPEUTICS CORPORATION, priority 2017, published 2021)
One block for each compound: values may come before it.

How the values were obtained:
[1] = test system: primary human hepatocytes; assay: RNA-seq of primary human hepatocytes treated with 39 small molecules (pilot and validation); details: for significant modulation of gene expression: RNA-seq, p-value≤0.05, primary human hepatocytes, the modulated genes are listed in the block; for Number (#) of genes having significantly changed expression: pilot RNA-seq study of Example 2, significance: FPKM≥0.5, log 2(fold change)≥1, q-value ≤0.05
[2] = test system: primary human hepatocytes
[3] = test system: Hematopoietic progenitor CD34+ cells; assay: qRT-PCR after inducible (pTRIPZ) shRNA knockdown in CD34+ cells; type: cell-based, human; details: for RQ, BAG1: relative quantification of BAG1 expression vs puro_shNT; for RQ, BAG1 / RQ, BAX / RQ, GATA1 / RQ, GATA2 / RQ, MDM2: pTRIPZ dox inducible shRNA, B-Actin internal control, Table 81; for RQ, BAX: relative quantification of BAX expression vs puro_shNT; for RQ, GATA1: relative quantification of GATA1 expression vs puro_shNT; for RQ, GATA2: relative quantification of GATA2 expression vs puro_shNT; for RQ, HBB: relative quantification of HBB expression vs puro_shNT; for RQ, HBB / RQ, RPL11 / RQ, RPS19 / RQ, p21 / RQ, p53: inducible pTRIPZ shRNA, CD34+ cells, B-ACTIN, Table 80; for RQ, MDM2: relative quantification of MDM2 expression vs puro_shNT; for RQ, RPL11: relative quantification of RPL11 expression vs puro_shNT; for RQ, RPS19: relative quantification of RPS19 expression vs puro_shNT; for RQ, p21: relative quantification of p21 expression vs puro_shNT; for RQ, p53: relative quantification of p53 expression vs puro_shNT
Description: Conditionally immortalized cord blood CD34+ cells were transduced with the shRNA lentiviruses using the retronectin-transduction protocol (Clontech). Puromycin selection was performed 24-48 hours post-transduction. Cells were counted to monitor cell viability. After 12 days, which allowed for a large biomass, knockdown efficiency was analyzed. qRT-PCR was used to identify changes in mRNA, and Western blot was used to determine levels of protein depletion.
For RNA extraction, 1×10^6 cells were harvested in 500 μL of TRIZOL reagent (Thermo Scientific), and incubated for 5 minutes at room temperature. Then, 100 μL of chloroform was added to the cells, and the mixture was vortexed and then centrifuged at 12,000× gravity for 15 minutes. The aqueous phase was transferred to fresh tubes and one volume of 70% ethanol was added. The TRIZOL Plus RNA purification Kit (Thermo Scientific) was used for the remaining extraction protocol according to the manufacturer's instructions. For the conversion of RNA to cDNA the High Capacity cDNA RT kit (Thermo Scientific) was used according to the manufacturer's instructions. The cDNA was analyzed with qRT-PCR to determine the fold change of knockdown cells using Taqman Fast PCR mix and Applied Biosystems probes (Thermo Scientific).
shRNAs targeting RPS19, p53, or RPL11 were delivered to normal cord blood erythroblast cells using either the pLKO (constitutive) and pTRIPZ (inducible) plasmids described in Example 1. The mRNA expression of the p53 pathway proteins; progenitor factor GATA2; and differentiation factors HBB and GATA1 were measured by qRT-PCR. Cells not transduced with a shRNA as well as cells transduced with a non-targeting shRNA served as controls.
Hematopoietic progenitor CD34^+ cells were transduced with the pTRIPZ inducible lentiviral plasmids containing p53_sh1, puro_shNT, RPL11_1, RPL11_2, RPS19_1, or RPS19_2.
The relative expression of GATA1, GATA2, MDM2, BAX, and BAG1 were also analyzed in cells transduced with a pTRIPZ dox inducible shRNA. B-Actin was used as an internal control.

Compound: RPS19_2 (guide CTTGACGGTATCCACCCATT; chemistry not fully specified; listed as Homo sapiens)
RQ, BAG1 [3]: 1.08
RQ, BAX [3]: 1.29
RQ, GATA1 [3]: 0.87
RQ, GATA2 [3]: 1.23
RQ, HBB [3]: 0.55
RQ, MDM2 [3]: 1.38
RQ, RPL11 [3]: 1.46
RQ, RPS19 [3]: 0.77
RQ, p21 [3]: 1.73
RQ, p53 [3]: 1.12

Compound: RPS19_1 (guide TAGAACCAGTTCTCATCGTA; chemistry not fully specified; listed as Homo sapiens)
RQ, BAG1 [3]: 1.16
RQ, BAX [3]: 1.57
RQ, GATA1 [3]: 0.67
RQ, GATA2 [3]: 1.53
RQ, HBB [3]: 0.50
RQ, MDM2 [3]: 2.72
RQ, RPL11 [3]: 1.90
RQ, RPS19 [3]: 0.47
RQ, p21 [3]: 5.87
RQ, p53 [3]: 1.66

Compound: CCc1oc2ccccc2c1C(=O)c1cc(Br)c(O)c(Br)c1 [MT-220, Benzbromarone]
significant modulation of gene expression [1]: significantly (p-value≤0.05) modulate
Number (#) of genes having significantly changed expression [1]: 119
Log2 fold changes in gene expression: CYP2C19 [2]: 0.57
Log2 fold changes in gene expression: CYP3A4 [2]: 0.87
cytotoxicity in hepatocytes [2]: cytotoxic

Compound: COc1ccc(Cc2nccc3cc(OC)c(OC)cc23)cc1OC [MT-913, Papaverine]
significant modulation of gene expression [1]: significantly (p-value≤0.05) modulate
Number (#) of genes having significantly changed expression [1]: 12
Log2 fold changes in gene expression: CYP2C19 [2]: 0.09
Log2 fold changes in gene expression: CYP3A4 [2]: 0.06

Compound: C#C[C@]1(O)CC[C@H]2[C@@H]3CCC4=Cc5oncc5C[C@]4(C)[C@H]3CC[C@@]21C [MT-487, Danazol]
significant modulation of gene expression [1]: significantly (p-value≤0.05) modulate
Number (#) of genes having significantly changed expression [1]: 5
Log2 fold changes in gene expression: CYP2C19 [2]: −0.03
Log2 fold changes in gene expression: CYP3A4 [2]: 0.11

More lines, main results first:

Log2 fold changes in gene expression: CYP2C19 [2]: 0.18
Log2 fold changes in gene expression: CYP3A4 [2]: 0.03
Compound: CC(C)N(CCC(C(N)=O)(c1ccccc1)c1ccccn1)C(C)C (stereo not drawn) [MT-189, Disopyramide]
significant modulation of gene expression [1]: significantly (p-value≤0.05) modulate
Number (#) of genes having significantly changed expression [1]: 7

Log2 fold changes in gene expression: CYP2C19 [2]: −0.03
Log2 fold changes in gene expression: CYP3A4 [2]: 0.4
Compound: CCc1nn(CCCN2CCN(c3cccc(Cl)c3)CC2)c(=O)n1CCOc1ccccc1 [MT-505, Nefazodone]
significant modulation of gene expression [1]: significantly (p-value≤0.05) modulate
Number (#) of genes having significantly changed expression [1]: 18

Log2 fold changes in gene expression: CYP2C19 [2]: 0.04
Log2 fold changes in gene expression: CYP3A4 [2]: −0.08
Compound: CC(C)(S)[C@@H](N)C(=O)O [MT-741, Penicillamine(D-)]
Log2 fold changes in gene expression: ACADVL ([1]; RNA-seq validation, duplicates, gene ACADVL): −0.04
Log2 fold changes in gene expression: ACAT2 ([1]; RNA-seq validation, duplicates, gene ACAT2): −0.05
Log2 fold changes in gene expression: ACSL1 ([1]; RNA-seq validation, duplicates, gene ACSL1): 0
Log2 fold changes in gene expression: ACSL5 ([1]; RNA-seq validation, duplicates, gene ACSL5): −0.05
Log2 fold changes in gene expression: AGPAT2 ([1]; RNA-seq validation, duplicates, gene AGPAT2): −0.11
Log2 fold changes in gene expression: AGTR1 ([1]; RNA-seq validation, duplicates, gene AGTR1): −0.04
Log2 fold changes in gene expression: AHSG ([1]; RNA-seq validation, duplicates, gene AHSG): 0.03
Log2 fold changes in gene expression: ALAS1 ([1]; RNA-seq validation, duplicates, gene ALAS1): −0.11
Log2 fold changes in gene expression: AMACR ([1]; RNA-seq validation, duplicates, gene AMACR): −0.24
Log2 fold changes in gene expression: ARG1 ([1]; RNA-seq validation, duplicates, gene ARG1): 0.01
Log2 fold changes in gene expression: CA2 ([1]; RNA-seq validation, duplicates, gene CA2): −0.18
Log2 fold changes in gene expression: CA12 ([1]; RNA-seq validation, duplicates, gene CA12): −0.02
Log2 fold changes in gene expression: CIDEC ([1]; RNA-seq validation, duplicates, gene CIDEC): −0.24
Log2 fold changes in gene expression: COL1A1 ([1]; RNA-seq validation, duplicates, gene COL1A1): 0.14
Log2 fold changes in gene expression: CPS1 ([1]; RNA-seq validation, duplicates, gene CPS1): −0.12
Log2 fold changes in gene expression: CPT1A ([1]; RNA-seq validation, duplicates, gene CPT1A): 0.04
Log2 fold changes in gene expression: CPT2 ([1]; RNA-seq validation, duplicates, gene CPT2): −0.22
Log2 fold changes in gene expression: CYP21A2 ([1]; RNA-seq validation, duplicates, gene CYP21A2): 0.04
Log2 fold changes in gene expression: ECH1 ([1]; RNA-seq validation, duplicates, gene ECH1): −0.14
Log2 fold changes in gene expression: ENO3 ([1]; RNA-seq validation, duplicates, gene ENO3): −0.17
Log2 fold changes in gene expression: ETFDH ([1]; RNA-seq validation, duplicates, gene ETFDH): −0.12
Log2 fold changes in gene expression: FABP1 ([1]; RNA-seq validation, duplicates, gene FABP1): −0.22
Log2 fold changes in gene expression: G6PC ([1]; RNA-seq validation, duplicates, gene G6PC): 0.14
Log2 fold changes in gene expression: GHR ([1]; RNA-seq validation, duplicates, gene GHR): −0.13
Log2 fold changes in gene expression: GLA ([1]; RNA-seq validation, duplicates, gene GLA): −0.06
Log2 fold changes in gene expression: HGD ([1]; RNA-seq validation, duplicates, gene HGD): −0.16
Log2 fold changes in gene expression: HMGCR ([1]; RNA-seq validation, duplicates, gene HMGCR): 0.05
Log2 fold changes in gene expression: HMGCS2 ([1]; RNA-seq validation, duplicates, gene HMGCS2): −0.03
Log2 fold changes in gene expression: HMOX1 ([1]; RNA-seq validation, duplicates, gene HMOX1): 0.05
Log2 fold changes in gene expression: HOGA1 ([1]; RNA-seq validation, duplicates, gene HOGA1): 0
Log2 fold changes in gene expression: HPGD ([1]; RNA-seq validation, duplicates, gene HPGD): −0.06
Log2 fold changes in gene expression: IFT27 ([1]; RNA-seq validation, duplicates, gene IFT27): −0.01
Log2 fold changes in gene expression: LDHA ([1]; RNA-seq validation, duplicates, gene LDHA): 0.08
Log2 fold changes in gene expression: LPIN2 ([1]; RNA-seq validation, duplicates, gene LPIN2): 0.17
Log2 fold changes in gene expression: MOGAT2 ([1]; RNA-seq validation, duplicates, gene MOGAT2): 0.13
Log2 fold changes in gene expression: NCF2 ([1]; RNA-seq validation, duplicates, gene NCF2): −0.19
Log2 fold changes in gene expression: PCSK9 ([1]; RNA-seq validation, duplicates, gene PCSK9): 0.17
Log2 fold changes in gene expression: POR ([1]; RNA-seq validation, duplicates, gene POR): −0.14
Log2 fold changes in gene expression: RMRP ([1]; RNA-seq validation, duplicates, gene RMRP): −1.45
Log2 fold changes in gene expression: SLC2A2 ([1]; RNA-seq validation, duplicates, gene SLC2A2): −0.22
Log2 fold changes in gene expression: SLC6A6 ([1]; RNA-seq validation, duplicates, gene SLC6A6): −0.35
Log2 fold changes in gene expression: SLC25A20 ([1]; RNA-seq validation, duplicates, gene SLC25A20): −0.31
Log2 fold changes in gene expression: SLC37A4 ([1]; RNA-seq validation, duplicates, gene SLC37A4): 0.09
Log2 fold changes in gene expression: SLC51B ([1]; RNA-seq validation, duplicates, gene SLC51B): −0.08
Log2 fold changes in gene expression: SULT2A1 ([1]; RNA-seq validation, duplicates, gene SULT2A1): −0.18
Log2 fold changes in gene expression: TAT ([1]; RNA-seq validation, duplicates, gene TAT): 0.09
Log2 fold changes in gene expression: TDO2 ([1]; RNA-seq validation, duplicates, gene TDO2): −0.14
Log2 fold changes in gene expression: TMEM135 ([1]; RNA-seq validation, duplicates, gene TMEM135): −0.16
Log2 fold changes in gene expression: TNFSF11 ([1]; RNA-seq validation, duplicates, gene TNFSF11): 0.04
Log2 fold changes in gene expression: VLDLR ([1]; RNA-seq validation, duplicates, gene VLDLR): 0.09
significant modulation of gene expression [1]: significantly (p-value≤0.05) modulate
Number (#) of genes having significantly changed expression [1]: 9

Log2 fold changes in gene expression: CYP2C19 [2]: 0.07
Log2 fold changes in gene expression: CYP3A4 [2]: 0.02
Compound: C[C@H](CS)C(=O)N1CCC[C@H]1C(=O)O [MT-835, Captopril]
significant modulation of gene expression [1]: significantly (p-value≤0.05) modulate
Number (#) of genes having significantly changed expression [1]: 12
